Tests used:
RAS = system: RAS; parameters: method as in earlier work; settings: RAS antagonist, ref Reif et al., 1999, Katzav et al., 2001, Clarke et al., 2003, 2004, Kafri et al., 2005, Nevo et al., 2011, Rokni et al., 2022; cited from earlier work
[1] = Cytotoxic assay in cardiac fibroblasts (crystal violet, 96 h); format: cell-based; settings: human, human ventricular cardiac fibroblasts (NHCF-V), NHCF-V cell line, read-out: IC50 (cytotoxicity, CF viability)
Protocol: SB202190, Tacrolimus, and Sirolimus were freshly and individually prepared in DMSO for each individual experiment. Cardiac fibroblasts were seeded individually in 96-well plates (5,000 cells per well). The treatment effectiveness was assayed after applying reducing concentrations in a 1:2 fixed ratio to cycling cells in the exponential phase. All treatments were assessed within reducing doses of SB202190, Tacrolimus, or Sirolimus in monotherapy or combination in fixed proportions a day after the seeding. The proliferation viability was determined by crystal violet after 96 h. Cytotoxicity profiles were measured by absorbance at 595 nm using a microplate reader; then, IC50 values were estimated using GraphPad Prism 7 software.

[2] = system: iPSC-derived human heart organoids (hHOs); experiment: Cardiotoxicity MTT assay in iPSC-derived human heart organoids (96 h); format: cell-based; settings: hHOs day 15, MTT, read-out: IC50 (hHO cellular viability)
Protocol: SB202190, Tacrolimus, and Sirolimus were prepared alone or in combinations mixed in DMSO for each experiment. hHOs were differentiated and seeded separately in low-binding 96-w plates. The effectiveness of the treatment was measured after the usage of decreasing concentrations in a 1:2 ratio to day 15 of developing heart organoids. All treatments were applied by reducing dosages of SB202190, Tacrolimus, or Sirolimus in monotherapy or combination. The proliferation capacity as a functional assay was determined using an MTT assay after 96 h (4 days). Cytotoxicity profiling was drafted by obtaining absorbance metrics at 595 nm using a particular microplate reader; then, IC50 values were calculated using GraphPad Prism 7.

hHO spontaneous beating = experiment: Organoid beating evaluation (beating count vs untreated organoid); format: cell-based, human; settings: hHOs, 96 h
Source text: For organoid beating evaluation, we measured the beating count at 10 s intervals and then compared it to the beating count of the untreated organoid for each case in biological triplicates.

COL1A1 [3] = experiment: COL1A1 expression in NHCF-V cardiac fibroblasts (western blot, immunocytochemistry); format: cell-based, human; settings: for COL1A1 protein expression: 5 ng/ml TGF-β1 for 24 h, SB202190 10 μM, TAC 10 μM, Sirolimus 200 nM
Protocol: Cells were fixed by 4% PFA treatment for 15 min and stored in PBS at 4°C. Blocking was performed for 30–45 min in a blocking buffer containing 1% BSA, 0.5% Triton X-100 and 0.1 M glycine in PBS. After washing three times with PBS, primary antibody anti-Collagen I (1:200, ab34710, Abcam) was added to the blocking buffer (w/o glycine) and incubated overnight at 4°C. The next day, cells were washed three times with PBS, and secondary antibody donkey anti-rabbit Alexa Fluro 594 (1:1000, A21207, Invitrogen) was added in 1% BSA-PBS for 2 h at RT. After washing three times with PBS, 1:10,000 Hoechst 33342 was added for nuclear counterstaining. Images were taken with Keyence.
After 3 days of treatment on unstimulated CFs, we treated cells with 5 ng/ml of TGF-β1 in combination with the inhibitors for another 24 h to recapitulate pathological conditions of heart disease and induced a forced expression of ECMs, with a particular focus on COL1A1 as a major component of the Collagen type I.

COL1A1 [4] = experiment: COL1A1 expression in TGF-β1 stimulated hHOs (western blot, immunocytochemistry); format: cell-based, human; settings: 5 ng/ml TGF-β1 for 24 h, SB202190 10 μM, TAC 10 μM, Sirolimus 200 nM
Protocol: Immunofluorescence staining of hHOs was conducted as previously described. hHOs were fixed by 4% PFA solution for 45–60 min at room temperature and incubated in blocking/permeabilization solution containing 10% normal donkey serum (Abcam), 0.5% Triton X-100 (nacalai tesque) and 0.5% BSA (nacalai tesque) at 4°C overnight. Subsequently, hHOs were stained with primary and secondary antibodies in PBS containing 1% normal donkey serum, 0.5% Triton X-100 and 0.5% BSA, respectively. Nuclei were stained with Hoechst 33342 (1:1000) before mounting. A confocal laser scanning microscope (Olympus FV3000) was used for fluorescent observation. Primary antibodies used are listed as follows: anti-Vimentin (1:200, ab11256, Abcam); anti-Collagen I (1:200, ab34710, Abcam); anti-WT1 (1:200, ab89901, Abcam); anti-ZO-1 (1:200, 33-9100, Invitrogen); anti-CD31/PECAM1 (1:50, ab28364, Abcam); anti-Cardiac Troponin T (1:200, ab8295, Abcam); anti-NFAT2 (1:200, ab25916, Abcam); anti-CD90/THY1 (1:200, ab133350, Abcam). […]
Cells were lysed in M-PER Mammalian Protein Extraction Reagent (78501, Thermo Scientific) buffer, and hHOs were lysed in T-PER Tissue Protein Extraction Reagent (78510, Thermo Scientific). The amount of protein was determined by Bradford assay using BSA as a standard. […]

[5] = system: mTORC1 downstream targets p4E-BP1 and pS6K; experiment: Western blot for pathway targets in NHCF-V; format: cell-based, human; settings: 200 nM
Protocol: (§1) Cells were lysed in M-PER Mammalian Protein Extraction Reagent (78501, Thermo Scientific) buffer, and hHOs were lysed in T-PER Tissue Protein Extraction Reagent (78510, Thermo Scientific). The amount of protein was determined by Bradford assay using BSA as a standard. The primary antibodies were purchased from commercial sources as follows: anti-phospho-S6 Ribosomal Protein (1:1000, 5364, CST); anti-phospho-4E-BP1 (1:1000, 2855, CST); anti-4E-BP1 (1:1000, 9644, CST); anti-phospho-p38 (1:1000, 4631, CST); anti-p38 (1:1000, 9212, CST); anti-phospho-AKT (1:1000, 9271, CST); anti-Collagen I (1:1000, ab34710, abcam); anti-IL-11 (1:1000, ab76589, abcam); anti-β-actin (1:1000, A5441, Sigma). The secondary antibodies used are as follows: goat anti-rabbit IgG (HRP) (1:5000, sc-2054, Santa cruz), and anti-mouse IgG (HRP) (1:5000, 7076, CST).

IL-11 and phospho-p38 = experiment: Western blot for IL-11 and phospho-p38 in TGF-β1 stimulated hHOs; format: cell-based, human
Protocol: as §1

safe dosages preserving average beating rates compared to untreated organoids (from ... downwards) (hHO spontaneous beating) [µM]	SMILES	inflammation and fibrosis in animal models (RAS)	IC50 at 96 h [1] [µM]	IC50 [2] [µM]	COL1A1 protein expression (COL1A1 [3])	TGF-β1 driven COL1A1 expression / ECM depositions (COL1A1 [4])	inhibition of mTORC1 downstream targets p4E-BP1 and pS6K [5]	levels of IL-11 and phospho-p38 (IL-11 and phospho-p38)	COL1A1 levels in TGF-β1 unstimulated condition (COL1A1 [3]; unstimulated, western blot)
	CC(C)=CCC/C(C)=C/CC/C(C)=C/CSc1ccccc1C(=O)O [FTS, Farnesythiosalicylic acid]	decreasing inflammation and fibrosis in animal models							
≤ 100	Oc1ccc(-c2nc(-c3ccncc3)c(-c3ccc(F)cc3)[nH]2)cc1 [SB202190]		13.9	72.4	independent effect in reducing COL1A1 protein expression	effectively reduced TGF-β1 driven COL1A1 expression			
≤ 2.5	CO[C@H]1C[C@@H]2CC[C@@H](C)[C@@](O)(O2)C(=O)C(=O)N2CCCC[C@H]2C(=O)O[C@H]([C@H](C)C[C@@H]2CC[C@@H](O)[C@H](OC)C2)CC(=O)[C@H](C)/C=C(\C)[C@@H](O)[C@@H](OC)C(=O)[C@H](C)C[C@H](C)/C=C/C=C/C=C/1C [Sirolimus]		3.54 ± 0.2	5.01 ± 0.4	independent effect in reducing COL1A1 protein expression	this phenotype is lost in heart organoids	inhibit the mTORC1 downstream targets p4E-BP1 and pS6K	rescued levels of IL-11 and phospho-p38	
≤ 12	C=CC[C@@H]1/C=C(\C)C[C@H](C)C[C@H](OC)[C@H]2O[C@@](O)(C(=O)C(=O)N3CCCC[C@H]3C(=O)O[C@H](/C(C)=C/[C@@H]3CC[C@@H](O)[C@H](OC)C3)[C@H](C)[C@@H](O)CC1=O)[C@H](C)C[C@@H]2OC [Tacrolimus]		12.6	19.9	no effect				mildly increase COL1A1 levels

Source: publication PMC9692097, “Immunosuppressants Tacrolimus and Sirolimus revert the cardiac antifibrotic properties of p38-MAPK inhibition in 3D-multicellular human iPSC-heart organoids” (Frontiers in Cell and Developmental Biology, 2022)
